Assays:
[1] = biological target: active FYN (human recombinant, 62.7 kDa) (Homo sapiens, UniProt P06241); test: In vitro kinase assay (Z′-LYTE FRET); type: biochemical; conditions: read-out: IC50(nM) FYN INHIBITION
Experimental: Assays to determine the kinase inhibitory activity of compounds were performed using an automatic liquid handling device (Microlab STAR Hamilton) and Z′-LYTE™ Kinase Assay Platform, a Fluorescence Resonance Energy Transfer (FRET)-based assay platform compatible with high-throughput screening (HTS) applications. The assay employs a fluorescence-based, coupled-enzyme format and utilizes the differential sensitivity of phosphorylated and non-phosphorylated peptides to proteolytic cleavage.
All reagents were diluted in reaction buffer and the kinase reaction was carried out in a total volume of 10 μl, for 60 minutes at 25° C. The 0% Phosphorylation (i.e. no ATP) and 100% Phosphorylation (i.e. synthetically phosphorylated peptide supplied) Assay Controls, included in each plate, allowed to calculate the percent phosphorylation achieved in the specific reaction well. The 0% Inhibition and 0% Phosphorylation (i.e. 100% Inhibition) Controls define the dynamic range in the screen. At the end of incubation, a secondary reaction (the Development Reaction) started by adding 5 μl of Development Reagent, containing a site-specific protease that recognizes and cleaves non-phosphorylated peptides, and was interrupted after 60 minutes with 5 μl/sample of Stop Reagent.
The compounds were tested in a range of concentrations 10^−6-10^−9 M.
Results are expressed as percentage of inhibition and the IC50 values were calculated by non-linear curve fitting using GraphPad™ Prism software.

[2] = test system: NF-kB activation in JB6 CI 41-5a (P+) cells; test: Gene reporter (GR) assay, NF-kB luciferase after TNFα stimulation; type: cell-based, murine; conditions: Mus musculus; 1 h pre-treatment, 2 ng/ml TNFα for 4 h; read-out: IC50(nM) GR Inhibition
Excerpt: To determine if the compounds of the invention were active also in a cellular model, a gene reporter assay was established in a cell line (JB6 CI 41-5a (P+)) know to activate Fyn kinase via an inflammatory stimuli (TNFα). GR assay measures the activation of the nuclear transcription factor NF-kB, situated down-stream the Fyn activation pathway. Products active in this analysis has to penetrate in the cell and inhibit the activation pathway of NF-kB.
The murine epithelial cell line JB6 CI 41-5a (P+) (ATCC® Cat. # CRL-2010) was stably transfected with the pGL4.32[luc2P/NFkB-RE/Hygro] vector (Promega). Clonal selection was achieved by limiting dilution in MEM (+Earle's BSS+1.5 g/l sodium bicarbonate+0.1 mM NEAA)+GlutaMAX™-I, +1 mM sodium pyruvate, +5% FBS+80 μg/ml Hygromycin B. The clones were tested for their response to TNFα stimulus. The obtained transfected cells (JB6(P+) NFkB-RE-luc2P T3-C10) contained a firefly luciferase gene (luc2P) under the control of minimal TATA promoter with multiple Nuclear Factor-kB response elements (NFkB-REs). These NFkB-REs are DNA binding sequences for the NF-kB transcription factor.
JB6(P+) NFkB-RE-luc2P T3-C10 cells were used for the analysis of NF-kB activity modulation, after TNFα stimulation, by Fyn-inhibitors (Hwang et al.; Biochem. Pharmacol. 2009, 77 (7):1213-22).
6000 cells/well were plated in a 96× well plate. After 24 h new medium without antibiotics was given. After further 24 h the cells were pre-treated with the different compounds for 1 h and then stimulated with 2 ng/ml TNFα for 4 h. In each experiments two positive standards were always used, and each tested condition was analyzed in quadruplicate.
The luciferase analysis was performed with ONE-Glo™+ToxLuciferase Reporter and Cell Viability Assay kit (Promega). This assay combined luciferase assay chemistry with a cell viability marker to better understand reporter gene expression in the context of cell health. The assay uses a two-step process. The first part of the assay was a non-lytic fluorescence assay (CellTiter-Fluor™ Cell Viability Assay) that measured the relative number of live cells in a culture population, as it measures a conserved and constitutive protease activity within live cells. The live-cell protease activity was restricted to intact viable cells and was measured using a fluorogenic, cell-permeant peptide substrate (glycyl-phenylalanyl-aminofluorocoumarin; GF-AFC). The generated fluorescent signal, proportional to the number of living cells, was measured with EnVision microplate reader (PerkinElmer) using an excitation wavelength of 400 nm and emission wavelength of 500 nm.
The second part of the assay uses the ONE-Glo™ Luciferase Assay System to quantify firefly luciferase reporter gene expression. The ONE-Glo™ Assay contained a fluoro-luciferin substrate, more tolerant to sample components than standard luciferase assay reagents. Luminescence was measured with EnVision microplate reader (PerkinElmer).
Compounds of Formula (I) were tested for their capacity to penetrate into the cell and inhibit the activation pathway of NF-kB.

Chain of active FYN (human recombinant, 62.7 kDa) (P06241 whole entry): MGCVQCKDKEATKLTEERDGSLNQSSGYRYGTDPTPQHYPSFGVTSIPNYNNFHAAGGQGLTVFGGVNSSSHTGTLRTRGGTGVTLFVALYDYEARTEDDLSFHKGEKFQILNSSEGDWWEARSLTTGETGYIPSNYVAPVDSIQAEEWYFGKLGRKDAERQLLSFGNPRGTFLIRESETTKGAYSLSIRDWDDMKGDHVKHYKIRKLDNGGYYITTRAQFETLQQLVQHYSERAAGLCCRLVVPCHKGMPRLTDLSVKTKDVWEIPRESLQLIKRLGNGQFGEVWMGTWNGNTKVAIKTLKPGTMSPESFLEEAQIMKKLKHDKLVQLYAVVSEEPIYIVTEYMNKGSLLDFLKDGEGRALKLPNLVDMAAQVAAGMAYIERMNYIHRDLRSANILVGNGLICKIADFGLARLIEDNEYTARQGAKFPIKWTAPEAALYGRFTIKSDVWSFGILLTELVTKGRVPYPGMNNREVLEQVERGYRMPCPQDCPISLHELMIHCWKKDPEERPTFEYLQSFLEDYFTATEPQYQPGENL

Structure (SMILES)	IC50 [1] [nM]	IC50 [2] [nM]
CCc1cc(CN2CCN(c3nc(C)cc(Nc4cc(C5CC5)[nH]n4)n3)CC2)ccc1NC(=O)c1ccccc1F [Compound 18, N-(4-((4-(4-((5-cyclopropyl-1H-pyrazol-3-yl)amino)-6-methylpyrimidin-2-yl)piperazin-1-yl)methyl)-2-ethylphenyl)-2-fluorobenzamide]	94	1370
O=C(Nc1ccc(CN2CCN(c3nccc(Nc4cc(C5CC5)[nH]n4)n3)CC2)cc1)c1ccccc1F [Compound 3, N-(4-((4-(4-((5-cyclopropyl-1H-pyrazol-3-yl)amino)pyrimidin-2-yl)piperazin-1-yl)methyl)phenyl)-2-fluorobenzamide]	70	
CC1CCCN1C(=O)Nc1ccc(CN2CCN(c3nccc(Nc4cc(C5CC5)[nH]n4)n3)CC2)cc1 (stereo not shown) [Compound 48, N-(4-((4-(4-((5-cyclopropyl-1H-pyrazol-3-yl)amino)pyrimidin-2-yl)piperazin-1-yl)methyl)phenyl)-2-methylpyrrolidine-1-carboxamide]	37	
CCc1cc(NC(=O)c2ccccc2F)ccc1CN1CCN(c2nc(C)cc(Nc3cc(C4CC4)[nH]n3)n2)CC1 [Compound 19, N-(4-((4-(4-((5-cyclopropyl-1H-pyrazol-3-yl)amino)-6-methylpyrimidin-2-yl)piperazin-1-yl)methyl)-3-ethylphenyl)-2-fluorobenzamide]	1020	
O=C(Nc1ccc(OC(F)(F)F)cc1)c1ccc(CN2CCN(c3nccc(Nc4cc(C5CC5)[nH]n4)n3)CC2)cc1 [Compound 37, 4-((4-(4-((5-cyclopropyl-1H-pyrazol-3-yl)amino)pyrimidin-2-yl)piperazin-1-yl)methyl)-N-(4-(trifluoromethoxy)phenyl)benzamide]	> 1000	
Cn1ccnc1C(=O)Nc1ccc(CN2CCN(c3nccc(Nc4cc(C5CC5)[nH]n4)n3)CC2)cc1 [Compound 34, N-(4-((4-(4-((5-cyclopropyl-1H-pyrazol-3-yl)amino)pyrimidin-2-yl)piperazin-1-yl)methyl)phenyl)-1-methyl-1H-imidazole-2-carboxamide]	1450	
O=C(Nc1ccc(C(F)(F)F)cc1)c1ccc(CN2CCN(c3nccc(Nc4cc(C5CC5)[nH]n4)n3)CC2)cc1 [Compound 39, 4-((4-(4-((5-cyclopropyl-1H-pyrazol-3-yl)amino)pyrimidin-2-yl)piperazin-1-yl)methyl)-N-(4-(trifluoromethyl)phenyl)-benzamide]	> 1000	
O=C(Nc1ccc(CN2CCN(c3nccc(Nc4cc(C5CC5)[nH]n4)n3)CC2)cc1)c1ccccn1 [Compound 24, N-(4-((4-(4-((5-cyclopropyl-1H-pyrazol-3-yl)amino)pyrimidin-2-yl)piperazin-1-yl)methyl)phenyl)picolinamide]	1100	
Cc1cccnc1C(=O)Nc1ccc(CN2CCN(c3nccc(Nc4cc(C5CC5)[nH]n4)n3)CC2)cc1 [Compound 25, N-(4-((4-(4-((5-cyclopropyl-1H-pyrazol-3-yl)amino)pyrimidin-2-yl)piperazin-1-yl)methyl)phenyl)-3-methyl-picolinamide]	105	
O=C(Nc1ccc(CN2CCN(c3nccc(Nc4cc(C5CC5)[nH]n4)n3)CC2)cc1)c1cnccn1 [Compound 35, N-(4-((4-(4-((5-cyclopropyl-1H-pyrazol-3-yl)amino)pyrimidin-2-yl)piperazin-1-yl)methyl)phenyl)pyrazine-2-carboxamide]	282	
O=C(Nc1ccc(CN2CCN(c3nccc(Nc4cc(C5CC5)[nH]n4)n3)CC2)cc1)NC1CCCC1 [Compound 49, 1-cyclopentyl-3-(4-((4-(4-((3-cyclopropyl-1H-pyrazol-5-yl)amino)pyrimidin-2-yl)piperazin-1-yl)methyl)phenyl)urea]	69	
O=C(Nc1ccc(CN2CCN(c3nccc(Nc4cc(C5CC5)[nH]n4)n3)CC2)nn1)c1ccccc1C(F)(F)F [Compound 42, N-(6-((4-(4-((5-cyclopropyl-1H-pyrazol-3-yl)amino)pyrimidin-2-yl)piperazin-1-yl)methyl)pyridazin-3-yl)-2-(trifluoromethyl)benzamide]	663	
Cc1nc(C(=O)Nc2ccc(CN3CCN(c4nccc(Nc5cc(C6CC6)[nH]n5)n4)CC3)cc2)co1 [Compound 20, N-(4-((4-(4-((5-cyclopropyl-1H-pyrazol-3-yl)amino)pyrimidin-2-yl)piperazin-1-yl)methyl)phenyl)-2-methyloxazole-4-carboxamide]	86	
O=S(=O)(Nc1ccc(CN2CCN(c3nccc(Nc4cc(C5CC5)[nH]n4)n3)CC2)cc1)c1ccccc1F [Compound 40, N-(4-((4-(4-((5-cyclopropyl-1H-pyrazol-3-yl)amino)pyrimidin-2-yl)piperazin-1-yl)methyl)phenyl)-2-fluorobenzene-sulfonamide]	280	
O=C(Nc1ccc(CN2CCN(c3nccc(Nc4cc(C5CC5)[nH]n4)n3)CC2)cc1)c1ccc(F)cc1F [Compound 11, N-(4-((4-(4-((5-cyclopropyl-1H-pyrazol-3-yl)amino)pyrimidin-2-yl)piperazin-1-yl)methyl)phenyl)-2,4-difluoro-Benzamide]	16	
O=C(Nc1ccc(CN2CCN(c3nccc(Nc4cc(C5CC5)[nH]n4)n3)CC2)cc1)c1ccc(C(F)(F)F)cc1 [Compound 10, N-(4-((4-(4-((5-cyclopropyl-1H-pyrazol-3-yl)amino)pyrimidin-2-yl)piperazin-1-yl)methyl)phenyl)-4-(trifluoromethyl)benzamide]	950	
C[C@H]1CN(c2nccc(Nc3cc(C4CC4)[nH]n3)n2)CCN1Cc1ccc(NC(=O)c2cccnc2C(F)(F)F)cc1 [Compound 31, (S)-N-(4-((4-(4-((5-cyclopropyl-1H-pyrazol-3-yl)amino)pyrimidin-2-yl)-2-methyl-piperazin-1-yl)methyl)phenyl)-2-(trifluoromethyl)nicotinamide]	667	
O=C(Nc1cccc(C(F)(F)F)c1)c1ccc(CN2CCN(c3nccc(Nc4cc(C5CC5)[nH]n4)n3)CC2)cc1 [Compound 38, 4-((4-(4-((5-cyclopropyl-1H-pyrazol-3-yl)amino)pyrimidin-2-yl)piperazin-1-yl)methyl)-N-(3-(trifluoromethyl)-phenyl)benzamide]	> 1000	
C[C@@H]1CN(c2nccc(Nc3cc(C4CC4)[nH]n3)n2)CCN1Cc1ccc(NC(=O)c2cccnc2C(F)(F)F)cc1 [Compound 30, (R)-N-(4-((4-(4-((5-cyclopropyl-1H-pyrazol-3-yl)amino)pyrimidin-2-yl)-2-methylpiperazin-1-yl)methyl)phenyl)-2-(trifluoromethyl)nicotinamide]	180	
O=C(Nc1ccc(CN2CCN(c3nccc(Nc4nnc(C5CC5)o4)n3)CC2)cc1)c1ccccc1C(F)(F)F [Compound 44, N-(4-((4-(4-((5-cyclopropyl-1,3,4-oxadiazol-2-yl)amino)pyrimidin-2-yl)piperazin-1-yl)methyl)phenyl)-2-(trifluoromethyl)benzamide]	> 1000	
Cc1cc(Nc2cc(C3CC3)n[nH]2)nc(N2CCN(Cc3ccc(NC(=O)c4ccccc4C(F)(F)F)cc3)CC2)n1 [Compound 46, N-(4-((4-(4-((5-cyclopropyl-1H-pyrazol-3-yl)amino)-6-methylpyrimidin-2-yl)piperazin-1-yl)methyl)phenyl)-2-(trifluoromethyl)benzamide]	29	

Source: US10125121B2, “FYN kinase inhibitors” (ROTTAPHARM BIOTECH S.R.L., priority 2015, dated 2018)
